Marks after values point to notes of the source that are not given here. No end group written: not given here.
Key:
anti-SRBC antibody = experiment: Sheep Red Blood Cell (SRBC) hemolysis test, anti-SRBC antibody formation; format: in vivo, BALB/c mice; settings: SRBC on day 12, IFN-γ and IL-2 groups 3×10^5 IU/kg/day, X ± SD
Procedure: Sheep red blood cells (SRBC) were prepared by collecting blood from cervical vein and put into a sterile flask with glass beads. The flask was shaken for 3 minutes and the blood then mixed with Alsever solution (glucose 2.05 g, NaCl 0.4 g, […] 0.8 g, adjust to 100 ml with distilled water) and stored at 4° C. Immediately before use, samples were centrifuged at 130 g, 5 minutes to collect the SRBC. The cells were washed two times by re-suspension and centrifugation in normal saline. Then the cell pellet was collected by centrifugation at 180 g for 10 minutes and re-suspended in saline to make the final working SRBC suspension, 2% (v/v).
Complement was prepared by adding 10 volumes of fresh Cavy serum into one volume centrifuge packed SRBC, and then gently shaking for 30 minutes at 4° C. The SRBC was removed by centrifugation at 200 g for 10 minutes. 10 volumes of normal saline were added to obtain the working complement solution.
The test substances were administered as described in section 1.1, plus intraperitoneal injection 0.2 ml SRBC per mouse on day 12. On the day after the last test substance administration (day 16), blood was collected from the eye canthus and left at room temperature for one hour for serum exudation. After centrifugation at 200 g for 10 minutes, the serum was diluted by 500 times with normal saline.
To 1 ml diluted mouse serum of each mouse, 0.5 ml SRBC suspension was added. Ice cold. Then 1 ml working complement solution was added and incubated at 37° C. water bath for 10 minutes. Reactions were terminated by ice cold. Samples were then centrifuged at 200 g for 10 minutes to obtain the supernatant.
To 1 ml of this supernatant, 3 ml Drabkin solution was added and left at room temperature for 10 minutes. OD540nm was obtained.
Reference OD540nm was obtained by mixing 0.25 ml SRBC suspension with Drabkin solution to 4 ml and placed at room temperature for 10 minutes before OD540nm was taken. Sample serum index=(OD540nm of test sample[…]reference OD540nm)×500 3. The Effect of Peptides on the Phagocytosis Function of Mononuclear Phagocyte and the Weight of Immune Organ^[8,9].

mononuclear phagocyte = experiment: carbon particle clearance test, phagocytotic activity of mononuclear phagocyte; format: in vivo, BALB/c mice; set-up: key: α = (cube root of K)×(body weight ÷ liver+spleen weight); settings: peptide 5 μg/kg/day i.p. 15 days; IFN-γ and IL-2 groups 3×10^5 IU/kg/day; X ± SD
Procedure: On the next day after the last test substance administration (day 16), the mice were injected with […] body weight India ink (5 times dilution with normal saline) from the tail vein.
One minute and five minutes after Indian ink injection, 20 μl blood was obtained from the eye can thus with a heparinized tubing. The blood was mixed with 2 ml 0.1% w/v Na2CO3 and then OD680nm obtained. The outline clear index K was calculated by the following formula: K=(lgA1−lgA2)÷(t2−t1) Key: A1: OD680nm at first minute A2: OD680nm at fifth minute t2: 5 minutes […]
(§1) One day after the last test substance administration (day 16), the liver, spleen, and thymus gland were separated and blotted dry with filter paper and weighed. The phagocytosis index α was calculated as below: α=(^3√K)(W÷WLS) key: W: body weight WLS: weight of liver plus spleen Thymus gland index(%)=(thymus weight/body weight)×100% Spleen index(%)=(spleen weight/body weight)×100%

[1] = immunity organ weight test (thymus gland index, spleen index); format: in vivo, BALB/c mice; settings: IFN-γ and IL-2 groups 3×10^5 IU/kg/day, X ± SD
Procedure: The above substances were all dissolved in 0.5 ml saline and injected intraperitoneal (i.p.) for 15 continuous days, once per day.
as §1

[2] = test system: Masugi nephritis rat model; experiment: Masugi nephritis rat model; format: in vivo, Sprague Dawley (SD) rats
Source text: The anti-serum was then exuded and isolated. Whole blood was collected from 15 healthy SD rats. […] Treatment started on the day of induction. […] Adequate drinking water was supplied.

[3] = peptide 0.5 μg/kg/day i.p. 15 days
[4] = after three weeks of treatment, peptides 50 μg/kg/day i.p., hydrocortisone 3.3 mg/kg/day i.p.

Row | Molecule | anti-SRBC antibody formation (sample serum index) (anti-SRBC antibody; [3]) | anti-SRBC antibody formation (sample serum index) (anti-SRBC antibody; peptide 500 μg/kg/day i.p. 15 days) | phagocytotic index (mononuclear phagocyte) | weight of thymus gland (thymus gland index) [1, 3] [%] | weight of thymus gland (thymus gland index) ([1]; peptide 5 μg/kg/day i.p. 15 days) | weight of thymus gland (thymus gland index) ([1]; peptide 50 μg/kg/day i.p. 15 days) | urine protein level ([2]; Week 1, 24 hours urine, peptides 50 μg/kg/day i.p., hydrocortisone 3.3 mg/kg/day i.p.) [mg] | urine protein level ([2]; Week 2, 24 hours urine, peptides 50 μg/kg/day i.p., hydrocortisone 3.3 mg/kg/day i.p. (halved after first week)) [mg] | Serum creatinine level [2, 4] [µmol/L] | spleen index [2, 4] | renal pathological microscopic examination ([2]; peptides 50 μg/kg/day i.p. 3 weeks, 6 heaviest kidneys per group) | growth rate of treated nephritis rats ([2]; peptides 50 μg/kg/day i.p., hydrocortisone 3.3 mg/kg/day i.p.)
1 | VGMGEKDSY [CMS018] | 3 ± 1* Unit | 66 ± 16* Unit | 6.7 ± 1.2 | 0.20 ± 0.03 | 0.24 ± 0.04*^@^ % | 0.23 ± 0.02*^@^ % | 7.0 ± 3.7 | 5.5 ± 7.9 | 67 ± 1 | 3.3 ± 0.8 ×10^−3 | all pathological parameters of all rats were normal | 
2 | C[C@]12CCC(=O)C=C1CC[C@@H]1[C@@H]2[C@@H](O)C[C@@]2(C)[C@H]1CC[C@]2(O)C(=O)CO [hydrocortisone, Hydrocortisone, reference compound] |  |  |  |  |  |  |  |  | 239 ± 107 |  |  | slower growth rate than normal
